Test results as given in PubChem BioAssay (NCI).
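Cells were grown in 96-well plates and exposed to each compound for 48 hours at five concentrations; endpoints were interpolated linearly between bracketing concentrations, or set to the highest concentration if not reached. TGI denotes the concentration required for complete inhibition of growth.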

How the values were obtained:
Assay in all cases: DTP human tumour cell line panel, 48 h
SK-OV-3 ovarian = system: SK-OV-3 ovarian
UACC-257 melanoma = system: UACC-257 melanoma
KM12 colon = system: KM12 colon
OVCAR-5 ovarian = system: OVCAR-5 ovarian
HCT-116 colon = system: HCT-116 colon
UO-31 renal = system: UO-31 renal
SN12C renal = system: SN12C renal
IGROV1 ovarian = system: IGROV1 ovarian
MDA-MB-231 breast = system: MDA-MB-231 breast
T-47D breast = system: T-47D breast
HT29 colon = system: HT29 colon
SK-MEL-28 melanoma = system: SK-MEL-28 melanoma
ACHN renal = system: ACHN renal
SR leukemia = system: SR leukemia
SK-MEL-2 melanoma = system: SK-MEL-2 melanoma
NCI-H460 lung = system: NCI-H460 lung
BT-549 breast = system: BT-549 breast
NCI/ADR-RES ovarian = system: NCI/ADR-RES ovarian
LOX IMVI melanoma = system: LOX IMVI melanoma
RXF 393 renal = system: RXF 393 renal
MDA-N = system: MDA-N
SK-MEL-5 melanoma = system: SK-MEL-5 melanoma
SW-620 colon = system: SW-620 colon
PC-3 prostate = system: PC-3 prostate
SNB-75 CNS = system: SNB-75 CNS
NCI-H23 lung = system: NCI-H23 lung
TK-10 renal = system: TK-10 renal
M14 melanoma = system: M14 melanoma
NCI-H522 lung = system: NCI-H522 lung
CCRF-CEM leukemia = system: CCRF-CEM leukemia
HS 578T breast = system: HS 578T breast
A498 renal = system: A498 renal
HOP-62 NSCLC = system: HOP-62 NSCLC
OVCAR-3 ovarian = system: OVCAR-3 ovarian
A549 NSCLC = system: A549 NSCLC
SF-268 CNS = system: SF-268 CNS
HCT-15 colon = system: HCT-15 colon
K-562 leukemia = system: K-562 leukemia
HCC-2998 colon = system: HCC-2998 colon
SF-295 CNS = system: SF-295 CNS
HOP-92 NSCLC = system: HOP-92 NSCLC
UACC-62 melanoma = system: UACC-62 melanoma
OVCAR-4 ovarian = system: OVCAR-4 ovarian
SNB-19 CNS = system: SNB-19 CNS
SF-539 CNS = system: SF-539 CNS
NCI-H226 lung = system: NCI-H226 lung
COLO 205 colon = system: COLO 205 colon
MOLT-4 leukemia = system: MOLT-4 leukemia
786-0 renal = system: 786-0 renal
U251 CNS = system: U251 CNS
DU-145 prostate = system: DU-145 prostate
HL-60(TB) leukemia = system: HL-60(TB) leukemia
MALME-3M melanoma = system: MALME-3M melanoma
RPMI-8226 leukemia = system: RPMI-8226 leukemia
OVCAR-8 ovarian = system: OVCAR-8 ovarian
CAKI-1 renal = system: CAKI-1 renal
MDA-MB-435 = system: MDA-MB-435
EKVX NSCLC = system: EKVX NSCLC
MCF7 breast = system: MCF7 breast

`CS(=O)(=O)c1ccc(NNc2cc(=O)[nH]c(=O)[nH]2)cc1` showed a TGI (SK-OV-3 ovarian) of over 100 µM, a TGI (UACC-257 melanoma) of over 100 µM and a TGI (KM12 colon) of over 100 µM. For the same compound, the TGI (OVCAR-5 ovarian) was over 100 µM, the TGI (HCT-116 colon) was over 100 µM and the TGI (UO-31 renal) was over 100 µM. For the same compound, the TGI (SN12C renal) was over 100 µM, the TGI (IGROV1 ovarian) was over 100 µM and the TGI (MDA-MB-231 breast) was over 100 µM. For the same compound, the TGI (T-47D breast) was over 100 µM, the TGI (HT29 colon) was over 100 µM and the TGI (SK-MEL-28 melanoma) was over 100 µM. For the same compound, the TGI (ACHN renal) was over 100 µM, the TGI (SR leukemia) was over 100 µM and the TGI (SK-MEL-2 melanoma) was over 100 µM. It also gave a TGI (NCI-H460 lung) of over 100 µM, a TGI (BT-549 breast) of over 100 µM and a TGI (NCI/ADR-RES ovarian) of over 100 µM. It also gave a TGI (LOX IMVI melanoma) of over 100 µM, a TGI (RXF 393 renal) of over 100 µM and a TGI (MDA-N) of over 100 µM. The TGI (SK-MEL-5 melanoma) was over 100 µM, the TGI (SW-620 colon) was over 100 µM and the TGI (PC-3 prostate) was over 100 µM. The TGI (SNB-75 CNS) was over 100 µM, the TGI (NCI-H23 lung) was over 100 µM and the TGI (TK-10 renal) was 9.34 µM. For the same compound, the TGI (M14 melanoma) was over 100 µM, the TGI (NCI-H522 lung) was 40.2 µM and the TGI (CCRF-CEM leukemia) was over 100 µM. The TGI (HS 578T breast) was over 100 µM, the TGI (A498 renal) was over 100 µM and the TGI (HOP-62 NSCLC) was over 100 µM. The TGI (OVCAR-3 ovarian) was over 100 µM, the TGI (A549 NSCLC) was over 100 µM and the TGI (SF-268 CNS) was over 100 µM. For the same compound, the TGI (HCT-15 colon) was over 100 µM, the TGI (K-562 leukemia) was over 100 µM and the TGI (HCC-2998 colon) was over 100 µM. For the same compound, the TGI (SF-295 CNS) was over 100 µM, the TGI (HOP-92 NSCLC) was over 100 µM and the TGI (UACC-62 melanoma) was over 100 µM. For the same compound, the TGI (OVCAR-4 ovarian) was over 100 µM, the TGI (SNB-19 CNS) was over 100 µM and the TGI (SF-539 CNS) was over 100 µM. It also gave a TGI (NCI-H226 lung) of over 100 µM, a TGI (COLO 205 colon) of over 100 µM and a TGI (MOLT-4 leukemia) of over 100 µM. For the same compound, the TGI (786-0 renal) was over 100 µM, the TGI (U251 CNS) was over 100 µM and the TGI (DU-145 prostate) was over 100 µM. For the same compound, the TGI (HL-60(TB) leukemia) was over 100 µM, the TGI (MALME-3M melanoma) was over 100 µM and the TGI (RPMI-8226 leukemia) was over 100 µM.
With `C/C1=C\CC[C@@]2(C)O[C@@H]2C[C@@H]2[C@H](C/C(C)=C/CC1)OC(=O)C21CC1` the TGI (SK-OV-3 ovarian) was over 100 µM, the TGI (UACC-257 melanoma) was over 100 µM and the TGI (KM12 colon) was over 100 µM. It also gave a TGI (OVCAR-5 ovarian) of over 100 µM, a TGI (HCT-116 colon) of over 100 µM and a TGI (UO-31 renal) of over 100 µM. The TGI (SN12C renal) was over 100 µM, the TGI (IGROV1 ovarian) was 72.7 µM and the TGI (MDA-MB-231 breast) was over 100 µM. It also gave a TGI (OVCAR-8 ovarian) of over 100 µM, a TGI (CAKI-1 renal) of over 100 µM and a TGI (T-47D breast) of over 100 µM. The TGI (HT29 colon) was over 100 µM, the TGI (MDA-MB-435) was over 100 µM and the TGI (SK-MEL-28 melanoma) was over 100 µM. The TGI (ACHN renal) was over 100 µM, the TGI (SR leukemia) was 48 µM and the TGI (SK-MEL-2 melanoma) was over 100 µM. It also gave a TGI (NCI-H460 lung) of over 100 µM, a TGI (BT-549 breast) of over 100 µM and a TGI (NCI/ADR-RES ovarian) of over 100 µM. It also gave a TGI (RXF 393 renal) of over 100 µM, a TGI (MDA-N) of over 100 µM and a TGI (SK-MEL-5 melanoma) of over 100 µM. For the same compound, the TGI (SW-620 colon) was over 100 µM, the TGI (PC-3 prostate) was over 100 µM and the TGI (EKVX NSCLC) was over 100 µM. For the same compound, the TGI (SNB-75 CNS) was over 100 µM, the TGI (TK-10 renal) was over 100 µM and the TGI (M14 melanoma) was over 100 µM. The TGI (CCRF-CEM leukemia) was 65.8 µM, the TGI (A498 renal) was over 100 µM and the TGI (HOP-62 NSCLC) was over 100 µM. It also gave a TGI (OVCAR-3 ovarian) of over 100 µM, a TGI (A549 NSCLC) of over 100 µM and a TGI (SF-268 CNS) of over 100 µM. For the same compound, the TGI (MCF7 breast) was over 100 µM, the TGI (HCT-15 colon) was over 100 µM and the TGI (K-562 leukemia) was 66.2 µM. The TGI (HCC-2998 colon) was over 100 µM, the TGI (SF-295 CNS) was over 100 µM and the TGI (UACC-62 melanoma) was over 100 µM. It also gave a TGI (SNB-19 CNS) of over 100 µM, a TGI (SF-539 CNS) of over 100 µM and a TGI (COLO 205 colon) of over 100 µM. For the same compound, the TGI (MOLT-4 leukemia) was 61.2 µM, the TGI (786-0 renal) was over 100 µM and the TGI (U251 CNS) was over 100 µM. It also gave a TGI (DU-145 prostate) of over 100 µM, a TGI (HL-60(TB) leukemia) of 93.7 µM and a TGI (MALME-3M melanoma) of over 100 µM. It also gave a TGI (RPMI-8226 leukemia) of 46.3 µM.
